Results taken from publication PMC12406203 (Journal of Medicinal Chemistry, 2025).

What was measured:
Experiment in all cases: KINOMEscan
Assay type in all cases: binding
EPHA2 = target: T1, EPHA2 (Homo sapiens, UniProt P29317)
T1 construct: purchased Eurofins DiscoverX, LLC; host or cells: E. coli (T7 phage) or HEK-293
Experimental: (§1) The kinase inhibition profile of compounds 94 and 95 was assessed against 103 protein kinases by Eurofins DiscoverX, LLC., using the KINOMEscan assay. Kinase-tagged T7 phage strains were grown in parallel in 24-well blocks in an E. coli host derived from the BL21 strain. E. coli were grown to log-phase and infected with T7 phage from a frozen stock (multiplicity of infection = 0.4) and incubated with shaking at 32 °C until lysis (90–150 min). The lysates were centrifuged (6000g) and filtered (0.2 μm) to remove cell debris. The remaining kinases were produced in HEK-293 cells and subsequently tagged with DNA for qPCR detection. […] The liganded beads were blocked with excess biotin and washed with blocking buffer (SeaBlock (Pierce), 1% BSA, 0.05% Tween 20, 1 mM DTT) to remove unbound ligand and to reduce nonspecific phage binding. […] Test compounds were prepared as 100× stocks in 100% DMSO and directly diluted into the assay. All reactions were performed in polypropylene 384-well plates in a final volume of 0.02 mL. […] The kinase concentration in the eluates was measured by qPCR.
(§2) The compound(s) were screened at the concentration(s) requested, and results for primary screen binding interactions are reported as RA (%), where lower numbers indicate stronger hits in the matrix. RA=(testcompoundsignal−PCsignal/NCsignal−PCsignal)×100

CDK7 = target: T2, CDK7 (Homo sapiens, UniProt P50613)
T2 construct: purchased Eurofins DiscoverX, LLC; host or cells: E. coli BL21-derived (T7 phage) or HEK-293
T2 sequence (P50613 whole entry): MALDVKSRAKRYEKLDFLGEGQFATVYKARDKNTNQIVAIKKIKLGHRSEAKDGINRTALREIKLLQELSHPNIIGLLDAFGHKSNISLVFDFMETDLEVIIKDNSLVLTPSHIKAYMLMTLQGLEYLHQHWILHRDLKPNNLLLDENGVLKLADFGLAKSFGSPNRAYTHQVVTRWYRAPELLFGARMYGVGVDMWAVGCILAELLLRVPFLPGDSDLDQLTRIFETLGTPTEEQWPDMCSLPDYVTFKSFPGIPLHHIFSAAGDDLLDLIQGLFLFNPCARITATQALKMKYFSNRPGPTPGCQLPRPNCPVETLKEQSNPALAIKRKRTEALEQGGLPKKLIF
Experimental: as §1, §2

KIT(V559D,T670I) = target: T3, KIT(V559D,T670I) (Homo sapiens, UniProt P10721, T670I/V559D)
T3 construct: purchased Eurofins DiscoverX, LLC; host or cells: E. coli (BL21-derived, T7 phage) or HEK-293
T3 sequence (P10721 26-976 V559D/T670I): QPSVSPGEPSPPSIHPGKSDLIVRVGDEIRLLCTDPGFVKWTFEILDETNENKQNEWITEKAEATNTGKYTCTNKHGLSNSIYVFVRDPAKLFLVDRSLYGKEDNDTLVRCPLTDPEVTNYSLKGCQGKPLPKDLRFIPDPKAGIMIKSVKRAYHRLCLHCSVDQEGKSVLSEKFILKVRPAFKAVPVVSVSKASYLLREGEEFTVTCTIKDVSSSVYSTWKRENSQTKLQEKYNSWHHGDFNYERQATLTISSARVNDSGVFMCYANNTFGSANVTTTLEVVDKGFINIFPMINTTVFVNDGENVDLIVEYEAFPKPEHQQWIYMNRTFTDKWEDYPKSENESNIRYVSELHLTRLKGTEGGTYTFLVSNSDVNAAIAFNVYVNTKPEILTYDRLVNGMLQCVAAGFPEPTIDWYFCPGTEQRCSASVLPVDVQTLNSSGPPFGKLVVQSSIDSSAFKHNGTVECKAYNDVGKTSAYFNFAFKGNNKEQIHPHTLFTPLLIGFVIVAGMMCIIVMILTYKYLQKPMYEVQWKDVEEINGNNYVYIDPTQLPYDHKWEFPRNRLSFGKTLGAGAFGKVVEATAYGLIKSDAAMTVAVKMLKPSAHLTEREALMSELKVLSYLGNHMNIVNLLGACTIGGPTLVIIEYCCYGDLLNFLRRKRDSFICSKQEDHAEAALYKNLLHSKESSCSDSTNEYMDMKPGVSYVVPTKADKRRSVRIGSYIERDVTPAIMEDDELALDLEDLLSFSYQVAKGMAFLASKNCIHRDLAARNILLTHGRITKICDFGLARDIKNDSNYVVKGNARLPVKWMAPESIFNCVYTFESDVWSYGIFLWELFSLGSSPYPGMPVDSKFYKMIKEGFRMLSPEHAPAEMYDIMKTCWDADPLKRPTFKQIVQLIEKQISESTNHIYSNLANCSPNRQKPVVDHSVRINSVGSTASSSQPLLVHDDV
Experimental: as §1, §2

PIM3 = target: T4, PIM3 (Homo sapiens, UniProt Q86V86)
T4 construct: purchased Eurofins DiscoverX, LLC; host or cells: E. coli BL21-derived host (T7 phage) or HEK-293
Experimental: as §1, §2

SNARK = target: T5, SNARK (Homo sapiens, UniProt Q9H093)
T5 construct: purchased Eurofins DiscoverX, LLC; host or cells: E. coli BL21-derived host (T7 phage) or HEK-293
T5 sequence (Q9H093 1-628): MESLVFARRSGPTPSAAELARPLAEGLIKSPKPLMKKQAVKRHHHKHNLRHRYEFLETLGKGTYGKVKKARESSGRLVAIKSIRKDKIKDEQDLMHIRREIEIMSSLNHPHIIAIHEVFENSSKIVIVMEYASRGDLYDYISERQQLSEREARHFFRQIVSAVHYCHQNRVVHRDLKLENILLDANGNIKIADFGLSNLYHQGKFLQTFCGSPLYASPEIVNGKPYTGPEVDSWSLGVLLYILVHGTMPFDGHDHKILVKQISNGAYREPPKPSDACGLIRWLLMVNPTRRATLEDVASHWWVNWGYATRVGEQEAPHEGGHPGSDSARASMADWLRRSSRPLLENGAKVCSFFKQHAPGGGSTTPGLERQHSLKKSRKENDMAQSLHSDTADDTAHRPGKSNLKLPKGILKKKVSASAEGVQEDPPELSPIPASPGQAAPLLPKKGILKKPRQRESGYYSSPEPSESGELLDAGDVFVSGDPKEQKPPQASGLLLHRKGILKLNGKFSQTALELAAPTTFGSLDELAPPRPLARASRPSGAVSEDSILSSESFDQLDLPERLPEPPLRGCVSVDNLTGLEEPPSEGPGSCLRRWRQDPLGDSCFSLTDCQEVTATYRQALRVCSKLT
Experimental: as §1, §2

BRAF = target: T6, BRAF (Homo sapiens, UniProt P15056)
T6 construct: purchased Eurofins DiscoverX, LLC; host or cells: E. coli BL21-derived (T7 phage) or HEK-293
T6 sequence (P15056 whole entry): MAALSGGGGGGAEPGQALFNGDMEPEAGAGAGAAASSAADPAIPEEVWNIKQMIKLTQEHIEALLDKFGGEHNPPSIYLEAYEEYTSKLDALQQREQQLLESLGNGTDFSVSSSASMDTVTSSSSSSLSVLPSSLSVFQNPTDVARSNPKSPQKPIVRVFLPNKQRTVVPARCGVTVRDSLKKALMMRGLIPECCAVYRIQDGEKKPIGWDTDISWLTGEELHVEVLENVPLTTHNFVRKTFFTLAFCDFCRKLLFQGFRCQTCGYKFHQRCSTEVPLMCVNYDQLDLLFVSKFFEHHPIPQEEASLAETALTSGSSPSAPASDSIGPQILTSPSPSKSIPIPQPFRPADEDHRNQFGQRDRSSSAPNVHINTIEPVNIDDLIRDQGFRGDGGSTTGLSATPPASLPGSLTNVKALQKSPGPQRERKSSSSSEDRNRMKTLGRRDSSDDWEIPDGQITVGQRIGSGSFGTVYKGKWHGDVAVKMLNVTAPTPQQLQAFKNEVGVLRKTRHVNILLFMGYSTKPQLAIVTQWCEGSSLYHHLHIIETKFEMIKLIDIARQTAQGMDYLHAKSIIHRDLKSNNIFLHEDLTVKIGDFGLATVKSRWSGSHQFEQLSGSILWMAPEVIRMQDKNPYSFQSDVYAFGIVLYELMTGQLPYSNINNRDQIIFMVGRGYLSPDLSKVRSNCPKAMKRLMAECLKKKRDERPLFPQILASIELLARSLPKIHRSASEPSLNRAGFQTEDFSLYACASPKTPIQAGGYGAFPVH
Experimental: as §1, §2

JNK2 = target: T7, JNK2 (Homo sapiens, UniProt P45984)
T7 construct: purchased Eurofins DiscoverX, LLC; host or cells: E. coli (BL21-derived, T7 phage) or HEK-293
T7 sequence (P45984 whole entry): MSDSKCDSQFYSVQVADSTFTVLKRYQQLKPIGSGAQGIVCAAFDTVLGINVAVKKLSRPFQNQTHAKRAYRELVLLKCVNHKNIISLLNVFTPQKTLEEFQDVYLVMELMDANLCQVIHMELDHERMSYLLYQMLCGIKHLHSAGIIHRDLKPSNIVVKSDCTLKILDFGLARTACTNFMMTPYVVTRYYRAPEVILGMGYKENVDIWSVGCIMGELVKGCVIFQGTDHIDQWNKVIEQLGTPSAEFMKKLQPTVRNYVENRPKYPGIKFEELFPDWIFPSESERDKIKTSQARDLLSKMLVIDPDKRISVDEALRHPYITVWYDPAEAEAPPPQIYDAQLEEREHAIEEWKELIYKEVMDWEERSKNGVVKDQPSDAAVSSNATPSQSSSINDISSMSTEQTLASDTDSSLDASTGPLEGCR
Experimental: as §1, §2

MLK1 = target: T8, MLK1 (Homo sapiens, UniProt P80192)
T8 construct: purchased Eurofins DiscoverX, LLC; host or cells: E. coli (BL21-derived, T7 phage) or HEK-293
Experimental: as §1, §2

IKKβ = target: T9, IKKβ (Homo sapiens, UniProt O14920)
T9 construct: purchased Eurofins DiscoverX, LLC; host or cells: E. coli (T7 phage) or HEK-293
T9 sequence (O14920 1-756): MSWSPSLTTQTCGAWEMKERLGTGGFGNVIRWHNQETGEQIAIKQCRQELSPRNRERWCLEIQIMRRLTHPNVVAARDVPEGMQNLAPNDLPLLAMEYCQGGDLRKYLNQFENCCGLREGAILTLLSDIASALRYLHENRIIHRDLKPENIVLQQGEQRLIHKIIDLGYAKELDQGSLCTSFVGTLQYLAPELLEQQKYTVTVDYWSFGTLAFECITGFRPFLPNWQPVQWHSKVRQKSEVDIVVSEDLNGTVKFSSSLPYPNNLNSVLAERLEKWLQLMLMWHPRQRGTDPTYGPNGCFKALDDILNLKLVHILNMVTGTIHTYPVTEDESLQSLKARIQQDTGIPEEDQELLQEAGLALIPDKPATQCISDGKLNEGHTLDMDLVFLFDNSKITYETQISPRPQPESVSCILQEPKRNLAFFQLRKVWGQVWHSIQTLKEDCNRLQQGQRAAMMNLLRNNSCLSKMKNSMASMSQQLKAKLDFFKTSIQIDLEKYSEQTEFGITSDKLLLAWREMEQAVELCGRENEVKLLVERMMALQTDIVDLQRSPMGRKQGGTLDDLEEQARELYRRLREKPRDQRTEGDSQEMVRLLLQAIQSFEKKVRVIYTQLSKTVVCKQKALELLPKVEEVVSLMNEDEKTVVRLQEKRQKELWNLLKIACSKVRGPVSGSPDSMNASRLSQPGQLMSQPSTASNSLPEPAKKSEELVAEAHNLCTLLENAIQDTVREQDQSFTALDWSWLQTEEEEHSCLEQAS
Experimental: as §1, §2

INSR = target: T10, INSR (Homo sapiens, UniProt P06213)
T10 construct: purchased Eurofins DiscoverX, LLC; host or cells: E. coli (T7 phage) or HEK-293
Experimental: as §1, §2

SRC = target: T11, SRC (Homo sapiens, UniProt P12931)
T11 construct: purchased Eurofins DiscoverX, LLC; host or cells: E. coli BL21-derived host (T7 phage) or HEK-293
T11 sequence (P12931 whole entry): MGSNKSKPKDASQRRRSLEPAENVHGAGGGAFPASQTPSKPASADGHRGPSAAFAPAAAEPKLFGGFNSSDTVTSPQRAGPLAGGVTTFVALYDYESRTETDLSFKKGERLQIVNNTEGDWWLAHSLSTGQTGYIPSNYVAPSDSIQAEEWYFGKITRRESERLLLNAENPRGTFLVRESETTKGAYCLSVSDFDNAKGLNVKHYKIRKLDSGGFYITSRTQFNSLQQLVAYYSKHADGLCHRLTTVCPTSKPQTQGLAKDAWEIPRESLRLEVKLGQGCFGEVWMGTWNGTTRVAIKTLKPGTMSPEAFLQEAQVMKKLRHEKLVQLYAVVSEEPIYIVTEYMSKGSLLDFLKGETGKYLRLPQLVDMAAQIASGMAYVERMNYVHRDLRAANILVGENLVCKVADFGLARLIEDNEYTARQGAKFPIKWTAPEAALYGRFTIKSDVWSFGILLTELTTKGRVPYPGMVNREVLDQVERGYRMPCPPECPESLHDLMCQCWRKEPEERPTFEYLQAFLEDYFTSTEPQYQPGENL
Experimental: as §1, §2

[1] = target: T12, ABL1(T315I)-phosphorylated (Homo sapiens, UniProt P00519, T315I)
T12 construct: purchased Eurofins DiscoverX, LLC; host or cells: E. coli BL21-derived (T7 phage) or HEK-293
Experimental: as §1, §2

T1 sequence (P29317 24-976): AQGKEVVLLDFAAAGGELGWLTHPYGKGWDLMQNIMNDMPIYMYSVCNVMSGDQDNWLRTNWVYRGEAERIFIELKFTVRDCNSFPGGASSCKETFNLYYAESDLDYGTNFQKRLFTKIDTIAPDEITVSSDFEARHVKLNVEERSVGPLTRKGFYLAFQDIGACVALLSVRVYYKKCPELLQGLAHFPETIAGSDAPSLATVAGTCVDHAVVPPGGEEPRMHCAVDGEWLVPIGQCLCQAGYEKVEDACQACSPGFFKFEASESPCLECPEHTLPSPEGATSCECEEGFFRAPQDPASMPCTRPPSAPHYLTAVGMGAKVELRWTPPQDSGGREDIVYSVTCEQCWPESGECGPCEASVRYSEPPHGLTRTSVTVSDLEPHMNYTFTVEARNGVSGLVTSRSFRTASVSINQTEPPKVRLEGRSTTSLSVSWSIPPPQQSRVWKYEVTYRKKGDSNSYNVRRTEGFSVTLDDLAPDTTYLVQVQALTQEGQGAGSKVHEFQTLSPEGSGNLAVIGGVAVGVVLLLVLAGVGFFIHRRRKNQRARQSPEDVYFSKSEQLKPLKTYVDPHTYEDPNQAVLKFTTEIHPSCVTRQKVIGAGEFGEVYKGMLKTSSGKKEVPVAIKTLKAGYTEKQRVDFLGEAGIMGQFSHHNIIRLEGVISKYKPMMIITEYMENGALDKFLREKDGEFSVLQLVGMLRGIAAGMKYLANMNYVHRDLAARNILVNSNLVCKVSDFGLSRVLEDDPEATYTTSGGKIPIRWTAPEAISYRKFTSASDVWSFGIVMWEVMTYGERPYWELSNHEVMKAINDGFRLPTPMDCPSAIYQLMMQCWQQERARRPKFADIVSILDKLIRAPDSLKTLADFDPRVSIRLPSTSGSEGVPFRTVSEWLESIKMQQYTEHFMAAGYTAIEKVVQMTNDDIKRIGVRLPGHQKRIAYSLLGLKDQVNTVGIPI

| Structure (SMILES) | RA @ 1000nM (EPHA2) [%] | RA @ 10000nM (EPHA2) [%] | RA @ 1000nM (CDK7) [%] | RA @ 10000nM (CDK7) [%] | RA @ 1000nM (KIT(V559D,T670I)) [%] | RA @ 10000nM (KIT(V559D,T670I)) [%] | RA @ 1000nM (PIM3) [%] | RA @ 10000nM (PIM3) [%] | RA @ 1000nM (SNARK) [%] | RA @ 10000nM (SNARK) [%] | RA @ 1000nM (BRAF) [%] | RA @ 10000nM (BRAF) [%] | RA @ 1000nM (JNK2) [%] | RA @ 10000nM (JNK2) [%] | RA @ 1000nM (MLK1) [%] | RA @ 10000nM (MLK1) [%] | RA @ 1000nM (IKKβ) [%] | RA @ 10000nM (IKKβ) [%] | RA @ 1000nM (INSR) [%] | RA @ 10000nM (INSR) [%] | further results |
| --- | --- | --- | --- | --- | --- | --- | --- | --- | --- | --- | --- | --- | --- | --- | --- | --- | --- | --- | --- | --- | --- |
| CC(C)Cn1ncc2cc(Cc3ccc(F)cc3F)c(C(=O)NCCN(C)C)cc21 [Compound 94, 5-(2,4-Difluorobenzyl)-N-(2-(dimethylamino)ethyl)-1-isobutyl-1H-indazole-6-carboxamide] | 97 | 100 | 79 | 86 | 100 | 100 | 100 | 100 | 100 | 93 | 100 | 100 | 52 | 8.3 | 100 | 100 | 89 | 89 | 81 | 90 | RA @ 1000nM (SRC): 100%; RA @ 10000nM (SRC): 94%; RA @ 1000nM [1]: 93%; RA @ 10000nM [1]: 90% |
| CN(C)CCNC(=O)c1cc2c(cnn2CC2CCCCC2)cc1Cc1ccc(F)cc1F [Compound 95, 1-(Cyclohexylmethyl)-5-(2,4-difluorobenzyl)-N-(2-(dimethylamino)ethyl)-1H-indazole-6-carboxamide] | 100 | 100 | 88 | 77 | 47 | 94 | 100 | 100 | 93 | 92 | 100 | 100 | 44 | 3.8 | 100 | 90 | 93 | 80 | 84 | 81 | RA @ 1000nM (SRC): 100%; RA @ 10000nM (SRC): 93%; RA @ 1000nM [1]: 72%; RA @ 10000nM [1]: 91% |
